# Reference: ChEMBL document CHEMBL4476874, “Compounds for the modulation of myc activity” (2018)
# pIC50: −log10 of the molar value.
# Columns and labels:
# [1] = target: Myc proto-oncogene protein (Homo sapiens, UniProt P01106); assay: Inhibition of human c-Myc assessed as reduction in c-Myc/Max/Ebox DNA complex formation using pre-formed complex of c-Myc and biotinylated DNA containing single Ebox-sequence followed by compound addition and further addition of his6-tagged c-Max and incubated for 2 hrs by AlphaScreen assay
# Myc proto-oncogene protein, sequence (P01106 whole entry): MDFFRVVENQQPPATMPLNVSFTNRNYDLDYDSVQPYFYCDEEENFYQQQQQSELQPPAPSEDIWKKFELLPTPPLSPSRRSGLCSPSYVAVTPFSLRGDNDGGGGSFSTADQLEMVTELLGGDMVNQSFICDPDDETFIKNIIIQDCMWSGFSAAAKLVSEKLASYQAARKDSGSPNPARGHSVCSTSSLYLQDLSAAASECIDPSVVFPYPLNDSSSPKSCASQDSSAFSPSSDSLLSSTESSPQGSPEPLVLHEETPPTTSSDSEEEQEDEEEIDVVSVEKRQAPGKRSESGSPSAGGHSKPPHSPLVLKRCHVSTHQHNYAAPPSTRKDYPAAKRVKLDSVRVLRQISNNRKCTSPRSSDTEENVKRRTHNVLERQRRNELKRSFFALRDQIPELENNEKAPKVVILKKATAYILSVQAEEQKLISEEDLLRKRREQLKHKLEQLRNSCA
# NCI-H2171 = assay: Antiproliferative activity against human NCI-H2171 cells after 72 hrs by ATPlite assay; assay type: functional, cell-based; details: NCI-H2171, 72 h
pIC50 [1],pIC50 (NCI-H2171),Structure (SMILES)
5.00 to 6.00,6.00 to 6.52,Cc1noc(C)c1-c1ccc2sc(-c3c(NC(=O)CCNC(C)C)sc4c3CCNC4)nc2c1
> 6.52,> 6.52,CNCCC(=O)Nc1sc2c(c1-c1nc3ccccc3s1)CCN(C(C)C)C2
> 6.52,> 6.52,CC(C)NCCC(=O)Nc1sc2c(c1-c1nc3ccc(-c4cnn(C)c4)cc3s1)CCNC2
> 6.52,> 6.52,CC(C)NCCC(=O)Nc1sc2c(c1-c1nc3cc(-c4cccnc4)ccc3s1)CCNC2
,> 6.52,COCCNCCC(=O)Nc1sc2c(c1-c1nc3ccccc3s1)C[C@@H](C)NC2
5.00 to 6.00,5.00 to 6.00,CCC(C)N(CCC(=O)Nc1sc2c(c1-c1nc3ccccc3s1)CCNC2)C(C)=O (stereo not given)
6.00 to 6.52,6.00 to 6.52,CC(C)N1CCc2c(sc(NC(=O)CCN3CCN(C)CC3)c2-c2nc3ccccc3s2)C1
> 6.52,5.00 to 6.00,Cc1nn(C)cc1-c1ccc2sc(-c3c(NC(=O)CCNC(C)C)sc4c3CCNC4)nc2c1
6.00 to 6.52,5.00 to 6.00,CCN(CC)CCNCCC(=O)Nc1sc2c(c1-c1nc3ccccc3s1)CCN(C(C)C)C2
> 6.52,6.00 to 6.52,CC(C)NCCC(=O)Nc1sc2c(c1-c1nc3cc(-c4ccc(O)cc4)ccc3s1)CCNC2
> 6.52,> 6.52,CC(C)NCCC(=O)Nc1sc2c(c1-c1nc3cc(-c4cn[nH]c4)ccc3s1)CCNC2
6.00 to 6.52,> 6.52,CC(C)NCCC(=O)Nc1sc2c(c1-c1nc3ccccc3o1)CCNC2
6.00 to 6.52,6.00 to 6.52,CC(C)N1CCc2c(sc(NC(=O)CCNCCc3cccnc3)c2-c2nc3ccccc3s2)C1
> 6.52,> 6.52,NCCC(=O)Nc1sc2c(c1-c1nc3ccccc3s1)CCNC2
> 6.52,6.00 to 6.52,COc1ccc2sc(-c3c(NC(=O)CCNC(C)C)sc4c3CCNC4)nc2c1Cl
6.00 to 6.52,> 6.52,CC(C)N1CCc2c(sc(NC(=O)CCN3CCOCC3)c2-c2nc3ccccc3s2)C1
6.00 to 6.52,> 6.52,CC(C)NCCC(=O)Nc1sc2c(c1-c1nc3cc(N4CCS(=O)(=O)CC4)ccc3s1)CCNC2
> 6.52,,CC(C)NCCC(=O)Nc1sc2c(c1-c1nc3cc(C(C)O)ccc3s1)CCNC2 (stereo not given)
> 6.52,> 6.52,Cc1cn(-c2ccc3sc(-c4c(NC(=O)CCNC(C)C)sc5c4CCNC5)nc3c2)cn1
> 6.52,6.00 to 6.52,CC(C)NCCC(=O)Nc1sc2c(c1-c1nc3cc(C4=CCN(S(C)(=O)=O)CC4)ccc3s1)CCNC2
5.00 to 6.00,5.00 to 6.00,CC(C)N1CCc2c(sc(NC(=O)CCNCc3ccccc3)c2-c2nc3ccccc3s2)C1
5.00 to 6.00,,COCCNCCC(=O)Nc1sc2c(c1-c1nc3cc(-c4ccccc4)ccc3s1)CCNC2
< 5.00,6.00 to 6.52,CC(C)NCCC(=O)Nc1sc2c(c1-c1nc3cc(C4CCCCC4)ccc3s1)CCNC2
> 6.52,6.00 to 6.52,Cc1cc(-c2ccc3sc(-c4c(NC(=O)CCNC(C)C)sc5c4CCNC5)nc3c2)n(C)n1
6.00 to 6.52,> 6.52,CC(C)N1CCc2c(sc(NC(=O)CCN(C)C)c2-c2nc3ccccc3s2)C1
6.00 to 6.52,5.00 to 6.00,COCCNCCC(=O)Nc1sc2c(c1-c1nc3ccccc3s1)CCN(C(C)C)C2
,5.00 to 6.52,CC(=O)Nc1sc2c(c1-c1nc3ccccc3s1)C[C@@H](C)N[C@H]2C (relative stereo)
,5.00 to 6.00,"CC[C@H](C)NCCC(=O)Nc1sc2c(c1-c1nc3ccccc3s1)CC(C)NC2C (single isomer, unassigned; 620)"
,5.00 to 6.00,"CC[C@H](C)NCCC(=O)Nc1sc2c(c1-c1nc3ccccc3s1)CC(C)NC2C (single isomer, unassigned; 621)"
,> 6.52,"CC[C@H](C)NCCC(=O)Nc1sc2c(c1-c1nc3ccccc3s1)CC(C)NC2C (single isomer, unassigned; 624)"

# More lines, now with the values behind:
Structure (SMILES),pIC50 [1],pIC50 (NCI-H2171)
COCCNCCC(=O)Nc1sc2c(c1-c1nc3ccc(-c4cc5ccccc5[nH]4)cc3s1)CCNC2,< 5.00,
COCCNCCC(=O)Nc1sc2c(c1-c1nc3ccc(-c4ccccc4NC(C)=O)cc3s1)CCNC2,< 5.00,
COCCNCCC(=O)Nc1sc2c(c1-c1nc3cc(-c4cc5cccc(OC)c5[nH]4)ccc3s1)CCNC2,5.00 to 6.00,
CCOc1ccc(-c2ccc3sc(-c4c(NC(=O)CCNCCOC)sc5c4CCNC5)nc3c2)cn1,6.00 to 6.52,> 6.52
COCCNCCC(=O)Nc1sc2c(c1-c1nc3ccc(-c4cnccc4C)cc3s1)CCNC2,< 5.00,
CNS(=O)(=O)c1ccccc1-c1ccc2nc(-c3c(NC(=O)CCNCCOC)sc4c3CCNC4)sc2c1,< 5.00,
COCCNCCC(=O)Nc1sc2c(c1-c1nc3ccc(-c4ccc5c(c4)NC(=O)C5)cc3s1)CCNC2,5.00 to 6.00,
COCCNCCC(=O)Nc1sc2c(c1-c1nc3ccc(-c4ccc(OC)nc4C)cc3s1)CCNC2,< 5.00,
COCCNCCC(=O)Nc1sc2c(c1-c1nc3cc(-c4ccccc4Cl)ccc3s1)CCNC2,5.00 to 6.00,
COCCNCCC(=O)Nc1sc2c(c1-c1nc3ccc(-c4ccc(C(=O)OC)nc4)cc3s1)CCNC2,5.00 to 6.00,
COCCNCCC(=O)Nc1sc2c(c1-c1nc3ccc(-c4cccc5[nH]ncc45)cc3s1)CCNC2,5.00 to 6.00,
COCCNCCC(=O)Nc1sc2c(c1-c1nc3ccc(-c4cccc(C(=O)N5CCN(C)CC5)c4)cc3s1)CCNC2,6.00 to 6.52,
COCCNCCC(=O)Nc1sc2c(c1-c1nc3cc(-c4ccccc4O)ccc3s1)CCNC2,5.00 to 6.00,
COCCNCCC(=O)Nc1sc2c(c1-c1nc3cc(-c4ccc(O)c(F)c4)ccc3s1)CCNC2,< 5.00,
CC(=O)Nc1sc2c(c1-c1nc3ccc(-c4ccncc4)cc3s1)CCNC2,,6.00 to 6.52
COCCNCCC(=O)Nc1sc2c(c1-c1nc3cc(-c4cccc(C(F)(F)F)c4)ccc3s1)CCNC2,< 5.00,
COCCNCCC(=O)Nc1sc2c(c1-c1nc3cc(-c4ccc5c(c4)NC(=O)CO5)ccc3s1)CCNC2,5.00 to 6.00,
COCCNCCC(=O)Nc1sc2c(c1-c1nc3ccc(-c4ccc(C(=O)N5CCOCC5)cc4)cc3s1)CCNC2,6.00 to 6.52,
COCCNCCC(=O)Nc1sc2c(c1-c1nc3ccc(-c4ccncc4Cl)cc3s1)CCNC2,< 5.00,
COCCNCCC(=O)Nc1sc2c(c1-c1nc3cc(-c4cc(F)cnc4OC)ccc3s1)CCNC2,5.00 to 6.00,
CC(C)NCCC(=O)Nc1sc2c(c1-c1nc3c(NC(=O)c4ccccc4)cccc3s1)CCNC2,5.00 to 6.00,
COCCNCCC(=O)Nc1sc2c(c1-c1nc3ccc(-c4ccccc4Cl)cc3s1)CCNC2,< 5.00,
COCCNCCC(=O)Nc1sc2c(c1-c1nc3ccc(-c4ccnc5[nH]ccc45)cc3s1)CCNC2,< 5.00,
COCCNCCC(=O)Nc1sc2c(c1-c1nc3ccc(-c4ccc(O)c(F)c4)cc3s1)CCNC2,< 5.00,
CNc1ncc2cc(-c3ccc4sc(-c5c(NC(=O)CCNCCOC)sc6c5CCNC6)nc4c3)ccc2n1,< 5.00,
CC(C)NCCC(=O)Nc1sc2c(c1-c1nc3ccccc3s1)CC1CCC2N1 (stereo not given),5.00 to 6.00,> 6.52
COCCNCCC(=O)Nc1sc2c(c1-c1nc3ccc(-c4ccc(F)nc4F)cc3s1)CCNC2,< 5.00,

Structure (SMILES),pIC50 [1],pIC50 (NCI-H2171)
COCCNCCC(=O)Nc1sc2c(c1-c1nc3ccc(-c4ccc(OC)c(OC)c4)cc3s1)CCNC2,< 5.00,
COCCNCCC(=O)Nc1sc2c(c1-c1nc3ccc(-c4cncc(C#N)c4)cc3s1)CCNC2,5.00 to 6.00,
COCCNCCC(=O)Nc1sc2c(c1-c1nc3ccc(-c4c(F)cccc4F)cc3s1)CCNC2,< 5.00,
COCCNCCC(=O)Nc1sc2c(c1-c1nc3cc(F)ccc3s1)CCN[C@H]2C,,> 6.52
COCCNCCC(=O)Nc1sc2c(c1-c1nc3ccc(-c4ccc5cnn(C)c5c4)cc3s1)CCNC2,< 5.00,
CC(C)NCCC(=O)N(C)c1sc2c(c1-c1nc3cc(-c4cnn(C)c4)ccc3s1)CCNC2,< 5.00,5.00 to 6.00
COCCNCCC(=O)Nc1sc2c(c1-c1nc3ccc(-c4ccc(C(F)(F)F)nc4)cc3s1)CCNC2,< 5.00,
COCCNCCC(=O)Nc1sc2c(c1-c1nc3ccc(-c4ccccc4NS(C)(=O)=O)cc3s1)CCNC2,< 5.00,
COCCNCCC(=O)Nc1sc2c(c1-c1nc3cc(-c4cccc(C(=O)NCCN(C)C)c4)ccc3s1)CCNC2,6.00 to 6.52,
COCCNCCC(=O)Nc1sc2c(c1-c1nc3ccc(-c4ccccc4O)cc3s1)CCNC2,< 5.00,
COCCNCCC(=O)Nc1sc2c(c1-c1nc3cc(-c4ccc(S(=O)(=O)NC5CC5)cc4)ccc3s1)CCNC2,< 5.00,
COCCNCCC(=O)Nc1sc2c(c1-c1nc3c(N4CCCC4)cccc3s1)CCNC2,> 6.52,
COCCNCCC(=O)Nc1sc2c(c1-c1nc3cc(-c4ccnc5[nH]ccc45)ccc3s1)CCNC2,5.00 to 6.00,
COCCNCCC(=O)Nc1sc2c(c1-c1nc3cc(-c4cccc5cccnc45)ccc3s1)CCNC2,< 5.00,
COCCNCCC(=O)Nc1sc2c(c1-c1nc3cc(-c4ccccc4NC(C)=O)ccc3s1)CCNC2,< 5.00,
COCCNCCC(=O)Nc1sc2c(c1-c1nc3ccc(-c4ccc5ncccc5c4)cc3s1)CCNC2,< 5.00,
COCCNCCC(=O)Nc1sc2c(c1-c1nc3ccc(-c4ccnc(C(F)(F)F)c4)cc3s1)CCNC2,< 5.00,
COCCNCCC(=O)Nc1sc2c(c1-c1nc3ccc(-c4cc(F)cnc4OC)cc3s1)CCNC2,< 5.00,
COCCNCCC(=O)Nc1sc2c(c1-c1nc3ccc(-c4ccc(S(=O)(=O)NC5CC5)cc4)cc3s1)CCNC2,< 5.00,
COCCNCCC(=O)Nc1sc2c(c1-c1nc3cc(-c4ccc5c(=O)[nH]ccc5c4)ccc3s1)CCNC2,< 5.00,
COCCNCCC(=O)Nc1sc2c(c1-c1nc3ccc(-c4cc5cccc(OC)c5[nH]4)cc3s1)CCNC2,5.00 to 6.00,
COCCNCCC(=O)Nc1sc2c(c1-c1nc3ccc(-c4cnc(OC)nc4)cc3s1)CCNC2,5.00 to 6.00,
COCCNCCC(=O)Nc1sc2c(c1-c1nc3ccc(-c4ccc(OC)nc4)cc3s1)CCNC2,5.00 to 6.00,
COCCNCCC(=O)Nc1sc2c(c1-c1nc3cc(-c4cc5ccccc5[nH]4)ccc3s1)CCNC2,< 5.00,
COCCNCCC(=O)Nc1sc2c(c1-c1nc3cc(-c4ccc5c(c4)NC(=O)C5)ccc3s1)CCNC2,< 5.00,
COCCNCCC(=O)Nc1sc2c(c1-c1nc3ccc(-c4cncc(F)c4)cc3s1)CCNC2,6.00 to 6.52,> 6.52
